In ChEMBL document CHEMBL4706528, “The design, synthesis and anti-tumor mechanism study of new androgen receptor degrader” (Eur J Med Chem, 2020):
Calls of active or inactive are those of the source. No cut-off for these calls is given here.

How the values were obtained:
LNCaP [1] = experiment: Antiproliferative activity against androgen-positive human LNCaP cells assessed as cell growth inhibition measured after 72 hrs by SRB assay; format: functional, cell-based
SGC-7901 = experiment: Antiproliferative activity against androgen-positive human SGC-7901 cells assessed as cell growth inhibition measured after 72 hrs by SRB assay; format: functional, cell-based; settings: SGC-7901, 72 h
LNCaP [2] = experiment: Induction of cell cycle arrest in human LNCaP cells assessed as accumulation at S phase at 1 micromol/L after 24 hrs by RNase A/PI-staining based flow cytometric analysis (reference value: 20.69%); format: functional; settings: dose 1 µmol/L, at 1 µM
LNCaP [3] = experiment: Induction of cell cycle arrest in human LNCaP cells assessed as accumulation at G1 phase at 2 micromol/L after 24 hrs by RNase A/PI-staining based flow cytometric analysis (reference value: 47.99%); format: functional; settings: dose 2 µmol/L, at 2 µM
LNCaP [4] = experiment: Induction of cell cycle arrest in human LNCaP cells assessed as accumulation at G1 phase at 10 micromol/L after 24 hrs by RNase A/PI-staining based flow cytometric analysis (reference value: 47.99%); format: functional; settings: dose 10 µmol/L, at 10 µM
LNCaP [5] = experiment: Induction of apoptosis in human LNCaP cells assessed as necrotic cells level at 1 micromol/L incubated for 24 hrs by Annexin V/PI staining staining based flow cytometry (reference value: 0.694%); format: functional; settings: dose 1 µmol/L, at 1 µM
LNCaP [6] = experiment: Induction of apoptosis in human LNCaP cells assessed as viable cells level at 1 micromol/L incubated for 24 hrs by Annexin V/PI staining staining based flow cytometry (reference value: 96.3%); format: functional; settings: dose 1 µmol/L, at 1 µM
LNCaP [7] = experiment: Induction of apoptosis in human LNCaP cells assessed as early apoptotic cells level at 1 micromol/L incubated for 24 hrs by Annexin V/PI staining staining based flow cytometry (reference value: 2.09%); format: functional; settings: dose 1 µmol/L, at 1 µM
LNCaP [8] = experiment: Induction of apoptosis in human LNCaP cells assessed as early apoptotic cells level at 2 micromol/L incubated for 24 hrs by Annexin V/PI staining staining based flow cytometry (reference value: 2.09%); format: functional; settings: dose 2 µmol/L, at 2 µM
[9] = target: T1, Androgen receptor (Homo sapiens) (UniProt P10275); experiment: Selective androgen receptor degradation activity at androgen receptor in human LNCaP cells assessed as down regulation of protein level at 10 uM after 24 hrs by Western blot analysis; format: cell-based
T1 sequence (whole entry): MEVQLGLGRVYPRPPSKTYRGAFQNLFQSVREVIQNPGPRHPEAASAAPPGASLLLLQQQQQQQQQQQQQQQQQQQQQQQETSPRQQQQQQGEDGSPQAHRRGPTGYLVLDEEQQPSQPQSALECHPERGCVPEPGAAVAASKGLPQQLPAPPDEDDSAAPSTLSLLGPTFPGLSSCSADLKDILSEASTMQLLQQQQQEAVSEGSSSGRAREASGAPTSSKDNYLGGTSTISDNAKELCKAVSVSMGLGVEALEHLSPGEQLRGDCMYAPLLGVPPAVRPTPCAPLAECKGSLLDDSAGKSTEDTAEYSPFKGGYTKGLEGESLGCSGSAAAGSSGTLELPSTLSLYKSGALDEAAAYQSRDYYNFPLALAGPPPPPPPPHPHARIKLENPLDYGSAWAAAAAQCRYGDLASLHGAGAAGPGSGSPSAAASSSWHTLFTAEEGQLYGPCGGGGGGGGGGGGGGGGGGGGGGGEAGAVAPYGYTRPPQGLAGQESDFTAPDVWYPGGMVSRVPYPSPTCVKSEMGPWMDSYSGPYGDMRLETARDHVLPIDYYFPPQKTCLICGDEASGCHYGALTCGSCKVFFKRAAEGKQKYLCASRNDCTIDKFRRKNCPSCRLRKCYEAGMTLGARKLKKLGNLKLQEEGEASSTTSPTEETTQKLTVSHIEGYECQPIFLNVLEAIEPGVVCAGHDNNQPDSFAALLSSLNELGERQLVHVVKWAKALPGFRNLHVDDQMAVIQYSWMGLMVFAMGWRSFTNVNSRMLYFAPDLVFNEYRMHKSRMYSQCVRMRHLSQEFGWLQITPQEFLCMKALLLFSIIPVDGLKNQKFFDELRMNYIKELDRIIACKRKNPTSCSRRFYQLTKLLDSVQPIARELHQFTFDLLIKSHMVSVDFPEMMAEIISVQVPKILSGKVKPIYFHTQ

[10] = target: T1, Androgen receptor (Homo sapiens); experiment: Selective androgen receptor degradation activity at androgen receptor in human LNCaP cells assessed as down regulation of protein level at 10 uM after 72 hrs by Western blot analysis; format: cell-based
Progesterone receptor = target: T2, Progesterone receptor (Homo sapiens, UniProt P06401); experiment: Induction of downregulation of progesterone receptor in human T47D cells at 10 uM measured after 24 hrs by Western blot analysis; format: cell-based
T2 sequence (P06401 whole entry): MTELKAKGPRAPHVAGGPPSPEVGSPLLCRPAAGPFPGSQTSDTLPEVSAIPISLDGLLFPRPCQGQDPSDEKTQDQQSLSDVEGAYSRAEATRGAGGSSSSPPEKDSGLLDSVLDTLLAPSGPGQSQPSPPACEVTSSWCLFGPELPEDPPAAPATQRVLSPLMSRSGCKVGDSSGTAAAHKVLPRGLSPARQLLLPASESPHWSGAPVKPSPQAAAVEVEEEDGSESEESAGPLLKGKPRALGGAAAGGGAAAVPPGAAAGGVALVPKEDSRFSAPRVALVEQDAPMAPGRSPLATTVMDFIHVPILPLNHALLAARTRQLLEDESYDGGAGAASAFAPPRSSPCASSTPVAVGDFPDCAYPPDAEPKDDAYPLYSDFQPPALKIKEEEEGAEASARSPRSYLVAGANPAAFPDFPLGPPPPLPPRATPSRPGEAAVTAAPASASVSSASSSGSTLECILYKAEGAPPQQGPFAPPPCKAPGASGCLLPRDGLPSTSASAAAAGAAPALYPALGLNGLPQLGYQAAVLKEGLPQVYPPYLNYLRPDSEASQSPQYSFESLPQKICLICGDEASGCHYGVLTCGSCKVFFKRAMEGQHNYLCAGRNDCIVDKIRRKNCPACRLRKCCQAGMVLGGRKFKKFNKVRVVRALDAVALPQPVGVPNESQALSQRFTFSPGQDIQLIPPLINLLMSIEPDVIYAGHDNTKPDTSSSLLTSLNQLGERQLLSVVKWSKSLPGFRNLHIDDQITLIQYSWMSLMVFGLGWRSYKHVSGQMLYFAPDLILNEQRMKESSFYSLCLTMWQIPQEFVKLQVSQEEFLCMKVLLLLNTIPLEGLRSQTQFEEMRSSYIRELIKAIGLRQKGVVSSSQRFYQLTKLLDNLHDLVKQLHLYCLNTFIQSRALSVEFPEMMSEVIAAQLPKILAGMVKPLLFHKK

[11] = target: T1, Androgen receptor (Homo sapiens); experiment: Selective androgen receptor degradation activity at androgen receptor in human LNCaP cells assessed as down regulation of protein level at 10 uM after 24 hrs in presence of E-64 by Western blot analysis; format: cell-based
[12] = target: Prostate-specific antigen (Homo sapiens) (UniProt P07288); experiment: Induction of downregulation of PSA (unknown orgin) human LNCaP cells at 2 uM after 24 hrs by Western blot analysis
Sequence of Prostate-specific antigen (Homo sapiens) (P07288 whole entry, looked up): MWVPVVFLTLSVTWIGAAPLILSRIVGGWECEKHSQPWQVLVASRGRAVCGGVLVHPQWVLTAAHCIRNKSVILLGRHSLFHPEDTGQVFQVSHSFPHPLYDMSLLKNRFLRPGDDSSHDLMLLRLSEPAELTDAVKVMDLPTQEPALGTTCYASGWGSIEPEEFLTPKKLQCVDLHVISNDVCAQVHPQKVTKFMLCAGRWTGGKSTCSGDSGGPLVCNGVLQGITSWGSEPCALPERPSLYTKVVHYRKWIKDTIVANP

IC50 (LNCaP [1]): 1.75 µM
IC50 (SGC-7901): 6.93 µM
Activity [9]: Active
Activity [10]: Active
Activity (Progesterone receptor): Active
Activity [11]: Active
Activity [12]: Active
Structure (SMILES): CC1(C)C(=O)N(c2ccc(C#N)c(C(F)(F)F)c2)C(=S)N1CCCCCn1cc(COCCOCCOC(=O)CC23CC4CC(CC(C4)C2)C3)nn1
Activity (LNCaP [2]): 19.84%
Activity (LNCaP [3]): 67.54%
Activity (LNCaP [4]): 74.56%
Activity (LNCaP [5]): 0.774%
Activity (LNCaP [6]): 96.1%
Activity (LNCaP [7]): 1.56%
Activity (LNCaP [8]): 1.56%
